In data set [1] the test system is Regular RNA 20-mer oligonucleotide SEQ ID NO:1. The data set is described as follows: Duplex melting temperature (Tm), SEQ ID NO:1 strand as Regular RNA. Format: binding. To be noted: SEQ ID NO:1 strand Regular RNA; four μM each strand, 50 mM NaCl, 10 mM PO4 buffer, pH 7.4. On the procedure:
(§1) The stability of duplexes having 2′-substituted nucleotides versus duplexes without such modification was tested by examining the Tm of these complexes. four μM each of 20-mer oligonucleotide (5′-ggt ggt tcc tcc tca gtc gg-3′; SEQ ID NO:1) and its complement (5′-ccg act gag aag gaa cca cc-3′; SEQ ID NO:2) were bound in a solution of 50 mM NaCl, 10 mM PO4 buffer, pH 7.4. Each of the nucleotides of the oligonucleotide had the same 2′ group. Following binding, the melting temperature was determined as described (See L. L. Cummins et al., Nucleic Acids Research 23:2019-2024 (1995)).

Data set [2] relates to 2′-OMe RNA oligo 150-mer (SEQ ID NO:3). The data set is described as follows: Fluorescence signal of 12-mer probes bound to captured 150-mer on streptavidin plate. Format: binding. To be noted: individual probes, fluorescence (Oregon Green 488). The text has this: A 2′-OMe RNA oligo 150-mer (SEQ ID NO:3) was captured using a 15-mer 2′-OMe oligo tethered through biotin-streptavidin onto a white 96-well plate. Observations were taken of individual 2′-OMe 12-mers complementary to portions of the 150-mer labeled on the 5′-end with Oregon Green 488. Once the signal levels were obtained for single sequences, various combinations of the 12-mers were used to determine whether the fluorescence signal from the probes was additive. The sequences of these probes were chosen at 12-base steps through the sequence of the 150-mer.

The target in another data set is Avidin (Gallus gallus, UniProt P02701). To be noted: cited from earlier work.
Avidin, sequence (P02701 25-152): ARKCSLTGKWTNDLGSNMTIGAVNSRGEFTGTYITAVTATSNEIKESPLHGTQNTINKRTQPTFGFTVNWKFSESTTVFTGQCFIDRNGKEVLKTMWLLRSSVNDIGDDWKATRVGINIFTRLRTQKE
Data set [3] deals with polyclonal antibodies to cAMP. To be noted: cited from earlier work.
Data set [4] concerns Regular DNA 20-mer oligonucleotide SEQ ID NO:1. Nature of the data set: Duplex melting temperature (Tm), SEQ ID NO:1 strand as Regular DNA. The format is binding. To be noted: SEQ ID NO:1 strand Regular DNA; four μM each strand, 50 mM NaCl, 10 mM PO4 buffer, pH 7.4. On the procedure: as §1
For a further data set, the system named is folate binding proteins. To be noted: cited from earlier work.

As a reminder, the Tm is the temperature at which the thermal transition is half complete.

With “2′-O-methyl: 20-mer SEQ ID NO:2 (5′-ccg act gag aag gaa cca cc-3′), each nucleotide 2′-O-methyl”, in data set [1], the melting temperature (Tm) came out at 79 °C.

As to 5′-AUAGGGAAUCCU-butanol-3′ [Probe (6)], in data set [2], the Signal was 810.

Regarding 5′-CCACCUCACGAA-butanol-3′ [Probe (2)], the Signal in data set [2] (listed as (2)) is 297.

For the molecule 5′-CCACCUCACGAA-butanol-3′ [Probe (9)], the Signal in data set [2] (listed as (9)) is on record as 514.

Regarding 5′-CGAGUCCUGCAC-butanol-3′ [Probe (5)], in data set [2], the Signal is 85.

Consider 5′-GCCGUACUGUAG-butanol-3′ [Probe (3)], for which the Signal in data set [2] was found to be 256.

On to 5′-GGGGCCGUACUG-butanol-3′ [Probe (10)], for which the Signal in data set [2] is 46.

As to 5′-GUGCGGGUGAUG-butanol-3′ [Probe (4)], the Signal in data set [2] worked out at 115.

On to 5′-UGCAGUACAUGU-butanol-3′ [Probe (7)], for which the Signal in data set [2] was determined as 466.

As for 5′-UGUUCACCAUGC-butanol-3′ [Probe (1)], the Signal in data set [2] (listed as (1)) is reported as 124.

Turning to 5′-UGUUCACCAUGC-butanol-3′ [Probe (8)], the Signal in data set [2] (listed as (8)) is reported as 133.

Take `COC(=O)CCCCC1SCC2C1NC(=O)N2C(=O)OC` (centres unmarked) [1′-N-methoxy-carbonylbiotin methyl ester]: on Avidin, the “Binding affinity with Avidin” value is on record as 10^7 M^−1.

`O=C(O)CCCCC1SCC2NC(=S)NC21` (centres unmarked) [2-thiobiotin]: the “Binding affinity with Avidin” value on Avidin is given as 10^13 M^−1.

`COC(=O)CCCCC1SCC2NC(=O)N(C(=O)OC)C21` (centres unmarked) [3′-N-methoxy-carbonylbiotin methyl ester]: the “Binding affinity with Avidin” value on Avidin was 10^9 M^−1.

For `O=C(O)CCCC[C@@H]1SC[C@@H]2NC(=O)N[C@@H]21` [Biotin], the “Binding affinity with Avidin” value at Avidin is on record as 10^15 M^−1.

As for `C[C@@H]1NC(=O)N[C@@H]1CCCCCC(=O)O` [Dethiobiotin], on Avidin, the “Binding affinity with Avidin” value is listed as 10^13 M^−1.

With `N=C1N[C@H]2[C@H](CS[C@H]2CCCCC(=O)O)N1` [Iminobiotin], at Avidin, the “Binding affinity with Avidin” value is on record as 10^11 M^−1.

As to `Nc1ncnc2c1ncn2[C@@H]1O[C@@H]2COP(=O)(O)O[C@H]2[C@H]1O` [cAMP, cyclic AMP], in data set [3], the “Ka of polyclonal antibodies to cAMP” value was 10^10 to 10^12 M^−1.

In the case of “Regular DNA: 20-mer SEQ ID NO:2 (5′-ccg act gag aag gaa cca cc-3′) as regular DNA [reference compound]”, in data set [1], the midpoint of thermal melting (Tm) was 66 °C.

Take “p-ethoxy 2′-O-methyl: 20-mer SEQ ID NO:2 (5′-ccg act gag aag gaa cca cc-3′) as p-ethoxy 2′-O-methyl”: the Tm in data set [1] was found to be 71 °C.

For “p-ethoxy DNA: 20-mer SEQ ID NO:2 (5′-ccg act gag aag gaa cca cc-3′) as p-ethoxy DNA”, in data set [4], the Tm is 55 °C.

Regarding “p-ethoxy RNA: 20-mer SEQ ID NO:2 (5′-ccg act gag aag gaa cca cc-3′) as p-ethoxy RNA”, in data set [1], the Tm came to 56 °C.

tetrahydrofolate: the Ka in the data set on folate binding proteins is 3e+11 M⁻¹.

The values above are taken from patent publication US6440723B1, “Arrays with modified oligonucleotide and polynucleotide compositions” (Oligos Etc. Inc., priority 1998, dated 2002).
